A short description of series [1]: Hepatocyte stability test, monkey. The class given is in vitro ADME, cynomolgus monkey. The note with it: male, cryopreserved hepatocytes, pH 7.4, read-out: Hepatocyte stability (% remaining after 3 h). The method, then:
Hepatocyte incubations for the test compound (10 μM final concentration, n = 2 per each time point) were carried out in mouse, rat, dog, monkey and human cryopreserved hepatocytes, resuspended at a density of 0.5 million cells/ml of modified Krebs-Henseleit buffer (KHB). The information regarding the hepatocytes used in the experiment is as follows: liverPool® 10-donor mixed gender human (BioIVT, Cat.No. X008001, lot EAV), male cynomolgus monkey (BioIVT, Cat.No. M00305, lot COJ), male Beagle dog (BioIVT, Cat.No. M00205, lot USY), male Sprague Dawley rat (BioIVT, Cat.No. M00005, lot TQE) and male CD1 mouse (BioIVT, Cat.No.005052, lot LFF). In addition, the compound was also incubated with blank KHB. The final concentration of solvent (DMSO) was 0.1% of the final volume. The incubations were performed for 3 hours at 37°C and pH 7.4. Reactions were terminated at 0 and 180 minutes by the addition of 3 volumes of stop solution (acetonitrile/methanol (2:1, v/v) containing internal standard–diclofenac at 100 ng/ml). Samples (compound spiked buffer and compound spiked hepatocytes, as well as blank samples, i.e. hepatocytes with the same DMSO%) were then centrifuged and aliquots were transferred to 96-deep micronic tubes and frozen at -80 °C until LC-MS/MS analysis. […]

The test system of another series is Col1a1. Briefly: CDAHFD mice: liver Col1a1 RNA expression (qRT-PCR). It counts as in vivo, mouse. As to conditions: for Relative liver Col1a1 expressions in mice, measured using quantitative RT-PCR: individual mice and Average; for Col1A1 mRNA, Mean Diff.: Tukey; for Col1A1 mRNA, Median / Col1A1 mRNA, Mean: n=5; for Col1A1 mRNA, Mean: Column A = 1. An excerpt:
C57BL/6 J male mice were purchased from the Japan SLC. Inc (Hamamatsu, Japan). Mice (5 weeks old) were fed Teklad Certitied Irradiated Global 18% protein rodent diet purchased from Dooyeol Biotech Co. Ltd (Seoul, South Korea) during the acclimation period. The liver fibrosis/inflammation-induced groups were CDAHFD-fed (A06071302, Research diet). […]. […] All animal experiments complied with the relevant ethical regulations.
The frozen liver tissue was homogenized and put into QiAzol (Qiagen, Hilden) to isolate RNA, and 4 μg of RNA was synthesized into cDNA using the RevertAid First Strand cDNA synthesis kit (Thermo Fischer, Waltham). The expressions of mouse collagen I (Forward: 5’-TGTGTTCCCTACTCAGCCGTG-3’. Reverse: 5’-CATCGGTCATGCTCTCTCCAA-3’), mouse α-SMA (Forward:5’-TCCTGACGCTGAAGTATCCGAT-3’, Reverse: 5’-GGCCACACAAAGCTCGTTATAG-3’) and mouse 36B4 (Forward: 5’-ACCTCCTTCTTCCAGGCTTT-3’, Reverse: 5’-CTCCAGTCTTTATCAGCTGC-3’) as house-keeping gene were measured using ViiA 7 Real-time PCR system (Thermo Fischer scientific).

In a further series the target is T1, 5HT4E (h) (Homo sapiens, UniProt Q13639).
T1 construct: host or cells: CHO cells
Briefly: 5HT subtype antagonism assay (Eurofins Cerep): 5HT4E. It counts as cell-based. The note with it: concentration not given. The method, then: The derivatives were evaluated at a concentration of 1 μM for their antagonist activity on the 5HT2A receptor (Tables 1–3)[33],[34]. Human 5HT2A stably transfected HEK293 cells (a type of cell derived from kidney embryos)[20] were seeded in a 96-well plate (Costar; 3603) at a density of 9 × 10^4 in 100 μL of minimum essential medium (Welgene; LM007-86) containing 10% dialyzed fetal bovine serum (Gibco; 30067–334) and 1% penicillin/streptomycin (Gibco; 15140-122) and kept in a 37 °C incubator for 24 h. The cells were stained with 100 μL of cytosolic calcium dye using the FLIPR calcium 6 assay solution (Molecular devices, #R8190) supplemented with 2.5 mM probenecid (Sigma; P8761) and incubated for 1 h at 37 °C. After 1 h, the designated amount of the compound was treated in each well and incubated for another 1 h at 37 °C. Then, the cells were loaded in a Flexstation 3 microplate reader (Molecular Devices; FlexStaion) and 50 μL of 5 μM 5HT (serotonin hydrochloride, Sigma; H9523) was injected from a source plate (Nunc 96-well polystyrene conical bottom MicroWell Plate, Thermo; 249662) and the fluorescence intensity (Ex/Em-485nm/ 525 nm) was measured. […]
Antagonism assay Source Stimulus Incubation Measured Detection Method […]

The mark [2] stands for this setting: Column C (11c 5mpk) vs. Column B.
[3] abbreviates: Column D (11c 10mpk) vs. Column B.

One molecule from publication PMC10799935, “Discovery of a peripheral 5HT2A antagonist as a clinical candidate for metabolic dysfunction-associated steatohepatitis” (Nature Communications, 2024) can be followed below.

“And” between values parts separate entries of the source, which are not always exact repeats. Equal values may be shown once.

T1 sequence (Q13639 1-378 isoform Q13639-5): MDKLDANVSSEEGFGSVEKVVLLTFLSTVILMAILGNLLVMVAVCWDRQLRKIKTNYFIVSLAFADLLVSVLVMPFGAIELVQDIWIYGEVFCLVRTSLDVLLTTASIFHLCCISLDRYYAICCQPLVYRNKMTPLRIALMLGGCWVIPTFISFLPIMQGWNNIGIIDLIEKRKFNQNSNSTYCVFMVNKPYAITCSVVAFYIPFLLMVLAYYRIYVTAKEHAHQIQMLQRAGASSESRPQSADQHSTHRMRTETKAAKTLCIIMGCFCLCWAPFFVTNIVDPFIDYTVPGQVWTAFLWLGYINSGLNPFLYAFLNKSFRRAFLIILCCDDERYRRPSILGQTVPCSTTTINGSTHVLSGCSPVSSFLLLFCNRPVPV

Usually fraction remaining stands for what is left of the initial amount, in per cent. Consider `Cc1nc2n(c(=O)c1CCN1CCC(=C3c4ccc(Cl)cc4CCc4cccnc43)CC1)CCCC2O` (centres unmarked) [Compound 11c], for which the fraction remaining at 3 h, 10 μM in series [1] turned out to be 84.6%. The “Relative liver Col1a1 expressions in mice, measured using quantitative RT-PCR” value in the series with Col1a1 (CDAHFD+11c 5 mpk) was 27.265 and 19.811 and 25.539 and 19.317 and 28.556; in the series on Col1a1 (CDAHFD+11c 5 mpk, mean), 24.098; in the series with Col1a1 (CDAHFD+11c 10mpk) it was 18.660 and 20.539 and 29.586 and 37.388 and 28.021; in the series on Col1a1 (CDAHFD+11c 10mpk, mean), 26.839. Also, the “mRNA expression of Col1a1 in liver tissue” value with Col1a1 (CDAHFD-fed 11c vs CDAHFD-fed vehicle group) is listed as “significantly decreased”. Also, the “Col1A1 mRNA, Mean Diff.” value with Col1a1 (Column A (Vehicle, no CDAHFD) vs. Column C (11c 5mpk)) is given as -23.1; in the series with Col1a1 (Column A (Vehicle, no CDAHFD) vs. Column D (11c 10mpk)), -25.84; in the series on Col1a1 (Column B (CDAHFD+vehicle) vs. Column C (11c 5mpk)), 14.99; in the series on Col1a1 (Column B (CDAHFD+vehicle) vs. Column D (11c 10mpk)) it was 12.25; in the series with Col1a1 (Column C (11c 5mpk) vs. Column D (11c 10mpk)), -2.741. Besides, the “Col1A1 mRNA, Difference between medians: Actual” value is -15.12 in the series on Col1a1 (setting [2]) and -12.64 with Col1a1 (setting [3]). Further, the “Col1A1 mRNA, Difference between medians: Hodges-Lehmann” value is recorded as -15.12 in the series with Col1a1 (setting [2]) and -12.18 with Col1a1 (setting [3]). Besides, the “Col1A1 mRNA, Median” value in the series with Col1a1 (Column C (11c 5mpk)) is given as 25.54, n=5; with Col1a1 (Column D (11c 10mpk)), 28.02, n=5. Further, the figures for the “Col1A1 mRNA, Mean” value in the series with Col1a1 (Column C (CDAHFD+11c 5mpk)) and in the series on Col1a1 (Column D (CDAHFD+11c 10mpk)) were 24.1 and 26.84, respectively. The “Selectivity 4E: % inhibition” value at 5HT4E (h) is given as -3%.
